Source: ChEMBL document CHEMBL1811764, “Structure-activity studies of RNA-binding oxazolidinone derivatives” (Bioorg Med Chem Lett, 2011)

Key:
Nucleic Acid [1] = assay: Binding affinity to Bacillus subtilis AM1A antiterminator model RNA assessed as increase in fluorescence at 10 uM by FRET assay relative to control; format: nucleic-acid assay
Nucleic Acid [2] = assay: Binding affinity to Bacillus subtilis AM1A C11U antiterminator model RNA variant assessed as increase in fluorescence by FRET assay relative to control; format: nucleic-acid assay; parameters: concentration or dose not given beside the values

| Structure (SMILES) | Activity (Nucleic Acid [1]) [%] | Activity (Nucleic Acid [2]) [%] |
| --- | --- | --- |
| CC(C)(C)C(=O)OC[C@H]1OC(=O)N[C@@H]1CN1CCN(c2ccccc2)CC1 | 7.1 | 13.2 |
| O=C(COc1ccccc1)OC[C@H]1OC(=O)N[C@@H]1CN1CCN(c2ccccc2)CC1 | 9.5 | 9.4 |
| CC(C)CC(=O)OC[C@H]1OC(=O)N[C@@H]1CN1CCN(c2ccccc2)CC1 | 9.5 | 14 |
| O=C(CCc1ccccc1)OC[C@H]1OC(=O)N[C@@H]1CN1CCN(c2ccccc2)CC1 | 20.6 | 26.1 |
| O=C(Nc1cccc([N+](=O)[O-])c1)OC[C@H]1OC(=O)N[C@@H]1CN1CCN(c2ccccc2)CC1 | -1.1 | 0.2 |
| O=C(Cc1ccc(Cl)c(Cl)c1)OC[C@H]1OC(=O)N[C@@H]1CN1CCN(c2ccccc2)CC1 | 29.1 | 28.9 |
| O=C(NCc1ccccc1)OC[C@H]1OC(=O)N[C@@H]1CN1CCN(c2ccccc2)CC1 | 6.1 | 11.7 |
| CCCCNC(=O)OC[C@H]1OC(=O)N[C@@H]1CN1CCN(c2ccccc2)CC1 | 10.5 | 14 |
| Cc1ccc(C(=O)OC[C@H]2OC(=O)N[C@@H]2CN2CCN(c3ccccc3)CC2)cc1 | 27.4 | 27.5 |
| O=C1N[C@H](CN2CCN(c3ccccc3)CC2)[C@@H](COC(=O)c2c(Cl)cccc2Cl)O1 | 15.3 | 16.2 |
| CC(C)CCC(=O)OC[C@H]1OC(=O)N[C@@H]1CN1CCN(c2ccccc2)CC1 | 15 | 20.2 |
| N#Cc1ccccc1C(=O)OC[C@H]1OC(=O)N[C@@H]1CN1CCN(c2ccccc2)CC1 | 7.3 | 16.7 |
| O=C1N[C@H](CN2CCN(c3ccccc3)CC2)[C@@H](COC(=O)c2ccccc2I)O1 | 28.6 | 22.4 |
| O=C1N[C@H](CN2CCN(c3ccccc3)CC2)[C@@H](COC(=O)Oc2ccccc2)O1 | 12.4 | 21.3 |
| CCCCCCNC(=O)OC[C@H]1OC(=O)N[C@@H]1CN1CCN(c2ccccc2)CC1 | 17.4 | 23.7 |
| CC(C)(C)OC(=O)N[C@H](C(=O)OC[C@H]1OC(=O)N[C@@H]1CN1CCN(c2ccccc2)CC1)c1ccccc1 | 26.7 | 19.4 |
| O=C1N[C@H](CN2CCN(c3ccccc3)CC2)[C@@H](COC(=O)C2CCCCC2)O1 | 19.5 | 20.7 |
| O=C(Cc1ccccc1)OC[C@H]1OC(=O)N[C@@H]1CN1CCN(c2ccccc2)CC1 | 8.5 | 15.9 |
| CN(C)c1cccc(C(=O)OC[C@H]2OC(=O)N[C@@H]2CN2CCN(c3ccccc3)CC2)c1 | 24.6 | 27.1 |
| CC(=O)c1ccc(NC(=O)OC[C@H]2OC(=O)N[C@@H]2CN2CCN(c3ccccc3)CC2)cc1 | 7.7 | 13.4 |
| O=C1N[C@H](CN2CCN(c3ccccc3)CC2)[C@@H](COC(=O)c2ccccc2Oc2ccccc2)O1 | 30.8 | 26.5 |
| CCc1ccc(NC(=O)OC[C@H]2OC(=O)N[C@@H]2CN2CCN(c3ccccc3)CC2)cc1 | 18.3 | 19.1 |
| O=C(Nc1ccc(Cl)c(Cl)c1)OC[C@H]1OC(=O)N[C@@H]1CN1CCN(c2ccccc2)CC1 | 8.9 | 14.7 |
| CC(C)=CCCC(C)CC(=O)OC[C@H]1OC(=O)N[C@@H]1CN1CCN(c2ccccc2)CC1 (stereo partly specified) | 38.9 | 42.4 |
| CCCCCC(=O)OC[C@H]1OC(=O)N[C@@H]1CN1CCN(c2ccccc2)CC1 | 15.5 | 21 |
| O=C(CC1CC2CCC1C2)OC[C@H]1OC(=O)N[C@@H]1CN1CCN(c2ccccc2)CC1 (stereo partly specified) | 29.5 | 27.4 |
| O=C(Cc1ccc(-c2ccccc2)cc1)OC[C@H]1OC(=O)N[C@@H]1CN1CCN(c2ccccc2)CC1 | 25.3 | 22.3 |

| Structure (SMILES) | Activity (Nucleic Acid [1]) [%] | Activity (Nucleic Acid [2]) [%] |
| --- | --- | --- |
| CC(C)(C)OC(=O)N[C@@H](C(=O)OC[C@H]1OC(=O)N[C@@H]1CN1CCN(c2ccccc2)CC1)c1ccccc1 | 39.6 | 42.6 |
| CCCNC(=O)OC[C@H]1OC(=O)N[C@@H]1CN1CCN(c2ccccc2)CC1 | 10.3 | 9.6 |
| CCCCCCCC(=O)OC[C@H]1OC(=O)N[C@@H]1CN1CCN(c2ccccc2)CC1 | 18.1 | 25.4 |
| Cc1cccc(NC(=O)OC[C@H]2OC(=O)N[C@@H]2CN2CCN(c3ccccc3)CC2)c1 | 16.8 | 26.7 |
| CCCCCc1ccc(NC(=O)OC[C@H]2OC(=O)N[C@@H]2CN2CCN(c3ccccc3)CC2)cc1 | 10.6 | 11.1 |
| COc1cccc(C(=O)OC[C@H]2OC(=O)N[C@@H]2CN2CCN(c3ccccc3)CC2)c1 | 23.8 | 24.7 |
| COc1ccc(NC(=O)OC[C@H]2OC(=O)N[C@@H]2CN2CCN(c3ccccc3)CC2)cc1 | 7.8 | 7.7 |
| COc1cccc(CC(=O)OC[C@H]2OC(=O)N[C@@H]2CN2CCN(c3ccccc3)CC2)c1 | 18.9 | 19.6 |
| Cc1c(C(=O)OC[C@H]2OC(=O)N[C@@H]2CN2CCN(c3ccccc3)CC2)cccc1[N+](=O)[O-] | 23.3 | 24.5 |
| O=C(Nc1ccccc1)OC[C@H]1OC(=O)N[C@@H]1CN1CCN(c2ccccc2)CC1 | 8.4 | 11.2 |
| CCCC(=O)OC[C@H]1OC(=O)N[C@@H]1CN1CCN(c2ccccc2)CC1 | 10.1 | 19.7 |
| O=C1N[C@H](CN2CCN(c3ccccc3)CC2)[C@@H](COC(=O)c2ccccc2Cl)O1 | 30.4 | 28.8 |
| O=C(CCCC1CCCCC1)OC[C@H]1OC(=O)N[C@@H]1CN1CCN(c2ccccc2)CC1 | 31.8 | 29 |
| O=C(CCCCCc1ccccc1)OC[C@H]1OC(=O)N[C@@H]1CN1CCN(c2ccccc2)CC1 | 32.6 | 30.9 |
| O=C(Cc1ccc([N+](=O)[O-])cc1)OC[C@H]1OC(=O)N[C@@H]1CN1CCN(c2ccccc2)CC1 | 9.1 | 16.5 |
| O=C1N[C@H](CN2CCN(c3ccccc3)CC2)[C@@H](COC(=O)c2cc(OCc3ccccc3)c(OCc3ccccc3)c(OCc3ccccc3)c2)O1 | 14.3 | 18.6 |
| CC(C)(C)OC(=O)NCCCCC(=O)OC[C@H]1OC(=O)N[C@@H]1CN1CCN(c2ccccc2)CC1 | 29.4 | 27.7 |
| CC(C)(C)NC(=O)OC[C@H]1OC(=O)N[C@@H]1CN1CCN(c2ccccc2)CC1 | 8.9 | 8.7 |
| O=C1N[C@H](CN2CCN(c3ccccc3)CC2)[C@@H](COC(=O)c2ccc([N+](=O)[O-])cc2)O1 | 13.1 | 15.2 |
| O=C1N[C@H](CN2CCN(c3ccccc3)CC2)[C@@H](COC(=O)c2ccccc2F)O1 | 18.5 | 20.4 |
| COc1ccc(CC(=O)OC[C@H]2OC(=O)N[C@@H]2CN2CCN(c3ccccc3)CC2)cc1 | 13.7 | 18.8 |
| O=C1N[C@H](CN2CCN(c3ccccc3)CC2)[C@@H](COC(=O)c2ccccc2)O1 | 14.8 | 18.6 |
| O=C1N[C@H](CN2CCN(c3ccccc3)CC2)[C@@H](COC(=O)c2ccc(Cl)cc2)O1 | 29.1 | 22.8 |
| O=C(Nc1ccc([N+](=O)[O-])cc1)OC[C@H]1OC(=O)N[C@@H]1CN1CCN(c2ccccc2)CC1 | -1.8 | -4.9 |
| O=C1N[C@H](CN2CCN(c3ccccc3)CC2)[C@@H](COC(=O)c2ccco2)O1 | 6.4 | 14.7 |
| Cc1cccc(C(C)(C)C)c1NC(=O)OC[C@H]1OC(=O)N[C@@H]1CN1CCN(c2ccccc2)CC1 | 14.8 | 15.4 |
